Active and inactive are the calls of the source. The rule behind the calls is not given here.
System: HepG2
Test: Cytotoxicity against human HepG2 cells at 1.5 to 200 uM after 72 hrs by WST1 assay
Assay type: functional, cell-based

Structure (SMILES)	Activity
O=c1[nH]c(=O)n([C@H]2C[C@H](O)[C@@H](CO)O2)cc1F	Active
CC(=O)N[C@H]1[C@H](OCCCCCCNC(=O)CCOCC(COCCC(=O)NCCCCCCO[C@@H]2O[C@H](CO)[C@H](O)[C@H](O)[C@H]2NC(C)=O)(COCCC(=O)NCCCCCCO[C@@H]2O[C@H](CO)[C@H](O)[C@H](O)[C@H]2NC(C)=O)NC(=O)CCCC(=O)NCCCCCCOP(=O)(O)OC[C@H]2O[C@@H](n3cc(F)c(=O)[nH]c3=O)C[C@@H]2O)O[C@H](CO)[C@H](O)[C@@H]1O	Active

From ChEMBL document CHEMBL4229476, “Studies directed toward the asialoglycoprotein receptor mediated delivery of 5-fluoro-2'-deoxyuridine for hepatocellular carcinoma” (Bioorg Med Chem Lett, 2018)
